Results from patent publication US20070172514A1, “Materials and methods for improving livestock productivity” (priority 2006, published 2007).
Marks after values point to notes of the source that are not given here.

Key:
pregnant pig sow = assay: Enhanced productivity in swine: pregnant sows fed cysteamine hydrochloride; assay type: in vivo, swine (D×L×M hybrid swine); design: Live piglet born rate, Improvement / Live piglet born rate, Improvement (%) / Birth weight per litter, Improvement: dose or concentration left out as unconfirmed; details: for Birth weight per litter, Improvement (%) / Birth weight per piglet, Improvement (%) / Body weight of weaned piglet, Improvement (%): hydrochloride
Source text: A total of 14 heads of pregnant pig sow (which were the offspring of Duroc×Landrace×Meishan swine, also referred to herein as D×L×M hybrid swine) (84 days of pregnant) were divided into 2 groups: Control group (6) and Cysteamine group (8). The Control group was fed with basal diet. […]

D×L×M weanling piglets = assay: Enhanced growth in swine: weanling piglets fed cysteamine hydrochloride; assay type: in vivo; details: 30 days; for ADG, Improvement (%): (text: 90 g per ton of feed), hydrochloride
Source text: Total of 100 heads of unhealthy D×L×M weanling piglets (approx. 6.78 kg) were divided into 2 groups—Control group (50 heads) & Cysteamine group (50 heads). The Control group was fed with basal diet. […]

fattening pigs = assay: Carcass composition/appearance of fattening pigs; assay type: in vivo, swine
Protocol: 72 piglets were divided evenly into control group and Cysteamine group. The control group was treated with basal diet while the Cysteamine group was treated with basal diet added with 150 g cysteamine hydrochloride per ton of feed. Upon reaching the market weight of 85-90 kg, five animals from each treatment were slaughtered after fasting for one day. During slaughter, the animals were stunned with a stunning gun, bled, dehaired and eviscerated. The carcass was split […] and then chilled for 24 hours prior to fabrication. The slaughter and the chilled carcass weights were recorded. The chilled carcass weight expressed as percentage of the slaughter weight represents the dressed yield. The wholesale and retail cuts of each animals were weighed and recorded. The values were expressed as the percentage of the live weight and of the chilled carcass weight.
The area of the longissimus dorsi (LD) muscle was measured on the 12th rib of the right part of the carcasses. This was done by tracing the outline of the whole LD muscle on acetate paper and the area was measured with the use of a grading method.

pig intestine villi = assay: Intestine villi length and histology in pigs; assay type: in vivo, swine; details: 30 days
Protocol: 72 piglets were evenly divided into control group and Cysteamine group. The control group was treated with basal diet only, while the Cysteamine group was added with 150 g of cysteamine hydrochloride per ton of feed. The trial was lasted for 30 days.
Immediately after evisceration, tissue samples from the small intestine, large intestine, liver, and pancreas of pigs from each treatment group were collected. The collected samples were placed in properly labeled containers containing 10% buffered neutral formalin solution. The tissue samples were fixed for 78 hours before they were processed for routine histological examination using the paraffin embedding technique (well-known to the skilled artisan).
Sections approximately 5 to 6 μ thick were cut from paraffin blocked tissues using Optical 820 Rotary Microtome (Scientific Instruments Division, Buffalo, N.Y.). Some sections were stained with hematoxylin and eosin (H & E), others with Alcian blue. H & E stained sections were used for the examination of the general histology of the intestinal tract while the Alcian blue stained sections were used for goblet cells identification. The stained sections were examined under various magnifications using a light microscope.
The number and length (μm) of villi in the small intestine were counted per microscopic field; the thickness of the tunica muscularis in the small and large intestine were measured using American Optical Micrometer (American Optical Company, Buffalo, N.Y.) calibrated in millimeters. The mucosal folds in the large intestine, the density of intestinal glands (crypts), the appearance of the surface epithelium were all observed. The general histology of the liver and pancreas were examined and compared between Cysteamine treated and non-Cysteamine treated groups. Goblet cell density in the Cysteamine treated and non-Cysteamine treated pigs was compared through visual examination using light microscope.

[1] = system: Ximenta'er hybridizing beef cattle; assay: Enhanced productivity in beef cattle; assay type: in vivo
Protocol: In the following example, the test animals were beef cattle (Ximenta'er hybridizing beef cattle). The experiment was performed at the Hebei Hengshui Geling Beef Cattle Raising Farm dur the period from Oct. 10 to Dec. 21, 2002. In total, 64 heads of around 350 kg Ximenta'er hybridizing beef cattle were selected and separated into 4 groups randomly according to the principle of equalizing age, weight, grace, fur/hair condition, etc. Each group had 16 heads of beef cattle. The Control Group, Test Group I, II & III were fed a composition comprising 0, 1.5, 3, 6 g/head/day of cysteamine HCl, respectively. As noted in Tables 8, 9, and 10 below, adding a cysteamine compound to the basal diet of beef cattle can increase daily weight gain.

small-fat-tail sheep = assay: Enhanced productivity in small-fat-tail sheep; assay type: in vivo; details: 35 days
Protocol: In the following example, the test animals were sheep (small-fat-tail sheep). The experiment was performed at the Goat Trial Farm of Beijing Shengshifumin Muslim Food Company during the thirty-five day period from Dec. 2, 2004 to Jan. 5, 2005. In total, 40 heads of small-fat-tail sheep with the average weight of 26.5 kg were randomly divided into Control group (20) and Cysteamine group (20). The control group was fed with basal diet only, while the Cysteamine group was fed a diet that included 900 g cysteamine HCl per tonnage of diet. The standard basal diet of the farm was employed for this trial.

crossbreed sheep = assay: Enhanced productivity in crossbreed sheep; assay type: in vivo; details: 35 days
[2] = late phase pregnant sow, (text: 150 g per ton feed)
[3] = relative to control, (text: 150 g per ton feed)
[4] = relative to control, Dosage (text: 150 g per ton feed)
[5] = vs control, 90 g cysteamine hydrochloride per ton of feed
[6] = 150 g per ton of feed, slaughter at 85-90 kg
[7] = in words, 150 g per ton of feed
[8] = Test III, 6 g/head/day, p<0.05 vs Control
[9] = feed consumption, 20 head, 900 g/tonnage
[10] = in words, 900 g cysteamine HCl per tonnage of diet
[11] = relative to control, 900 g/tonnage

Cl.NCCS [Cysteamine HCl, cysteamine hydrochloride]
Birth weight per litter, Improvement (pregnant pig sow; difference vs control): 2.50 kg | Birth weight per piglet, Improvement (pregnant pig sow; difference vs control): 0.23 kg/head | Live piglet born rate, Improvement (pregnant pig sow; difference vs control): 0.00% | Body weight of weaned piglet, Improvement (pregnant pig sow; difference vs control, weaning age 19 days): 0.46 kg/head | Total piglet born (pregnant pig sow; late phase pregnant sow, 8 sows, Dosage (text: 150 g cysteamine hydrochloride per ton feed), from 84 days of pregnant to weaning): 82 head | Total live piglet born (pregnant pig sow; late phase pregnant sow, 8 sows, Dosage (text: 150 g per ton feed)): 82 head | Birth weight per litter (pregnant pig sow; [2]): 21.32 kg | Birth weight per piglet (pregnant pig sow; [2]): 2.08 kg/head | Live piglet born per litter (pregnant pig sow; [2]): 10.29 head | Live piglet born rate (pregnant pig sow; [2]): 100.00% | Piglet born per litter (pregnant pig sow; late phase pregnant sow, Dosage (text: 150 g per ton feed), from 84 days of pregnant to weaning): 10.29 head | Live piglet born rate, Improvement (%) (pregnant pig sow; relative to control): 0.00% | Birth weight per litter, Improvement (%) (pregnant pig sow; [3]): 13.28% | Birth weight per piglet, Improvement (%) (pregnant pig sow; [3]): 12.43% | Birth weight per litter, Improvement (%) (pregnant pig sow; [4]): 13.28% | Birth weight per piglet, Improvement (%) (pregnant pig sow; [4]): 12.43% | Body weight of weaned piglet, Improvement (%) (pregnant pig sow; relative to control, weaning age 19 days, listed as Cysteamine): 8.00% | Body weight of weaned piglet, Improvement (%) (pregnant pig sow; relative to control, weaning age 19 days, listed as cysteamine hydrochloride): 8.00% | Body weight of weaned piglet (pregnant pig sow; weaning age 19 days, Dosage (text: 150 g per ton feed)): 6.21 kg/head | Total feed consumption (D×L×M weanling piglets; 50 head): 1076.1 kg | Total final weight (D×L×M weanling piglets; 50 head): 973 kg | Total weight gain (D×L×M weanling piglets; 50 head): 633 kg | Daily feed consumption (D×L×M weanling piglets): 717.4 g/head | Weight gain (D×L×M weanling piglets): 12.66 kg/head | ADG (D×L×M weanling piglets; average daily weight gain): 422 g/head | Total feed consumption, Improvement (D×L×M weanling piglets; difference vs control, 50 head): +66.3 kg | Total final weight, Improvement (D×L×M weanling piglets; difference vs control, 50 head): +75 kg | Total weight gain, Improvement (D×L×M weanling piglets; difference vs control, 50 head): +72.5 kg | ADG, Improvement (D×L×M weanling piglets; difference vs control): +48 g/head | Daily feed consumption, Improvement (D×L×M weanling piglets; difference vs control): +44.2 g/head | FCR, Improvement (D×L×M weanling piglets; difference vs control): −0.1 | Final Wt., Improvement (D×L×M weanling piglets; difference vs control): +1.5 kg/head | Weight gain, Improvement (D×L×M weanling piglets; difference vs control): +1.45 kg/head | FCR (D×L×M weanling piglets; feed conversion rate): 1.70 | Diarrhea (D×L×M weanling piglets; of 50 head): 21 head | Diarrhea, Improvement (%) (D×L×M weanling piglets; relative to control): −43.24% | FCR, Improvement (%) (D×L×M weanling piglets; relative to control): −5.56% | ADG, Improvement (%) (D×L×M weanling piglets; relative to control, listed as Cysteamine): 12.83% | ADG, Improvement (%) (D×L×M weanling piglets; relative to control, listed as cysteamine hydrochloride): 12.83% | decrease in feed conversion rate (FCR) (D×L×M weanling piglets; [5]): 5.56% | improvement in diarrhea condition (D×L×M weanling piglets; [5]): 43.24% | Final Wt. (D×L×M weanling piglets; weanling piglets, Treatment (text: 90 g cysteamine hydrochloride per ton of feed)): 19.46 kg/head | Dressing % (fattening pigs; 150 g cysteamine hydrochloride per ton of feed, slaughter at 85-90 kg, five animals): 69.012% | Lean:Fat Ratio (fattening pigs; [6]): 0.105 | Loin Eye Area (fattening pigs; [6]): 4.850 sq.cm | Backfat Thickness (fattening pigs; 150 g per ton of feed, slaughter at 85-90 kg, P < 0.05 vs Non-Cysteamine HCl): 1.91^a cm | backfat vs pigs fed diet without cysteamine hydrochloride (fattening pigs; in words): significantly thinner | differences in dressing percentage, loin eye area, and lean:fat ratio vs diet without cysteamine hydrochloride (fattening pigs; in words): no significant differences | loin cut and lean trimmings as a percent of the live-weight vs diets without cysteamine hydrochloride (fattening pigs; in words): significantly higher | Villi Length, Small Intestines (pig intestine villi; 150 g of cysteamine hydrochloride per ton of feed, same letter as Non-Cysteamine (p>0.05), unit only in method b111): 2.15 ± 0.09^A μm | goblet cells in the small and large intestine vs non-Cysteamine-treated (pig intestine villi; [7]): noticeably larger and highly distended | length of small intestinal villi vs non-Cysteamine treated (pig intestine villi; [7]): longer | number of small intestinal villi vs non-Cysteamine treated (pig intestine villi; [7]): more numerous | daily weight gain ([1]; Test Group III, 6 g/head/day, p<0.05 vs Control, Test Group I & II): 1.217 kg | Feed Conversion Rate (FCR), Concentrated feed ([1]; Test I, 1.5 g/head/day): 3.54 | Feed Conversion Rate (FCR), Corn Silage ([1]; Test I, 1.5 g/head/day): 14.14 | Feed Conversion Rate (FCR), Raw Grass ([1]; Test I, 1.5 g/head/day): 1.21 | Final Wt. ([1]; Test I, 1.5 g/head/day): 423.8 kg | Feed Conversion Rate (FCR), Concentrated feed ([1]; Test II, 3 g/head/day): 3.70^a | Feed Conversion Rate (FCR), Corn Silage ([1]; Test II, 3 g/head/day): 14.42^a | Feed Conversion Rate (FCR), Raw Grass ([1]; Test II, 3 g/head/day): 1.27^a | Final Wt. ([1]; Test II, 3 g/head/day): 420.5 kg | Feed Conversion Rate (FCR), Raw Grass ([1]; Test III, 6 g/head/day): 1.06^a | Final Wt. ([1]; Test III, 6 g/head/day): 432.7 kg | Feed Conversion Rate (FCR), Concentrated feed [1, 8]: 3.09^b | Feed Conversion Rate (FCR), Corn Silage [1, 8]: 12.87^b | Total feed consumption (small-fat-tail sheep; 20 head, 900 g/tonnage): 1019.38 kg | Final weight (small-fat-tail sheep; Dosage 900 g/tonnage): 28.92 kg/head | Weight gain (small-fat-tail sheep; Dosage 900 g/tonnage): 3.350 kg/head | daily weight gain (small-fat-tail sheep; Dosage 900 g/tonnage): 95.71 g/head/day | Concentrate (small-fat-tail sheep; [9]): 245 kg | Hay (small-fat-tail sheep; [9]): 350.00 kg | Silage (small-fat-tail sheep; [9]): 424.38 kg | ADG vs control (small-fat-tail sheep; [10]): statistically significant increase | Daily weight gain, Improvement (%) (small-fat-tail sheep; [11]): 30.9% | Silage, Improvement (%) (small-fat-tail sheep; [11]): −16.22% | Weight gain, Improvement (%) (small-fat-tail sheep; [11]): 30.9% | Total feed consumption (crossbreed sheep; 20 head, 900 g/tonnage): 1001.2 kg | ADG (crossbreed sheep; Dosage 900 g/tonnage): 82.29 g/head/day | Final weight (crossbreed sheep; Dosage 900 g/tonnage): 29.59 kg/head | Weight gain (crossbreed sheep; Dosage 900 g/tonnage): 2.88 kg/head | Concentrate (crossbreed sheep; [9]): 245 kg | Hay (crossbreed sheep; [9]): 350.0 kg | Silage (crossbreed sheep; [9]): 406.2 kg | ADG vs control (crossbreed sheep; [10]): statistically significant increase | ADG, Improvement (%) (crossbreed sheep; [11]): 46.2% | Silage, Improvement (%) (crossbreed sheep; [11]): −5.14% | Weight gain, Improvement (%) (crossbreed sheep; [11]): 46.2%
